Like-named read-outs stand apart in the source and are kept apart here.

What is called IC50 is the concentration at which inhibition is half-maximal.

What all share (assay): microbe, parasite or virus in culture
Holding throughout (type): cell-based, Hepatitis C virus (HCV)
Holding throughout (conditions): Replicon Assay A

The subject of experiment [1] is HCV replicon 1A. The method, boiled down:
(§1)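 Read-out is replicon RNA per cell by real-time RT-PCR, normalised to cyclophilin mRNA amplified in the same well. Cells were exposed to compound for 3 days at 2000 cells/well in medium with 5% fetal bovine serum and 0.5% DMSO.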

Experiment [2] deals with HCV replicon 1AY93H. The method in brief:
as §1

Experiment [3] deals with HCV replicon 2B. The method, boiled down: as §1
Where [4] appears, read: read-out: 1A Y93H IC50, HCV replicon 1A Y93H.
The mark [5] stands for this setting: read-out: 2B IC50, HCV replicon 2B.
Where [6] appears, read: Hepatitis C virus, HCV replicon 1A.
Setting [7] is: Hepatitis C virus, read-out: 1A Y93H IC50, HCV replicon 1A Y93H.

In the case of `COC(=O)NC(C(=O)N1CCC[C@H]1c1ncc(-c2ccc3c(c2)cc2n3C(c3cc4c(s3)CCC4)Oc3cc(-c4cnc([C@@H]5CCCN5C(=O)[C@@H](NC(=O)OC)C(C)C)[nH]4)cc(F)c3-2)[nH]1)C1CCOC(C)(C)C1` (single isomer, unassigned) [Compound 405], the IC50 in experiment [1] (Hepatitis C virus, replicon 1A) was 0.0023 nM; in experiment [2] (Hepatitis C virus, read-out: 1A Y93H IC50 (nM), replicon 1AY93H), 0.0133 nM; in experiment [3] (Hepatitis C virus, read-out: 2B IC50 (nM), replicon 2B), 0.0042 nM.

On to `COC(=O)N[C@H](C(=O)N1CCC[C@H]1c1ncc(-c2cc(F)c3c(c2)OC(c2cc4c(s2)CCCO4)n2c-3cc3cc(-c4cnc([C@@H]5CCCN5C(=O)[C@@H](NC(=O)OC)C5CCOC(C)(C)C5)[nH]4)ccc32)[nH]1)C(C)C` (single isomer, unassigned) [Compound 411], for which the IC50 came out at 0.001 nM in experiment [1] (HCV replicon 1A), 0.78 nM in experiment [2] (setting [4]) and 0.2 nM in experiment [3] (setting [5]).

As for `COC(=O)N[C@H](C(=O)N1CCC[C@H]1c1ncc(-c2cc(F)c3c(c2)OC(c2cc4c(s2)CCCO4)n2c-3cc3cc(-c4cnc([C@@H]5CCCN5C(=O)[C@@H](NC(=O)OC)C5CCOC(C)(C)C5)[nH]4)ccc32)[nH]1)C(C)C` (single isomer, unassigned) [Compound 412], the IC50 came out at 0.0094 nM in experiment [1] (HCV replicon 1A), 0.008 nM in experiment [2] (setting [4]) and 0.005 nM in experiment [3] (setting [5]).

For `COC(=O)NC(C(=O)N1[C@@H]2C[C@@H]2C[C@H]1c1ncc(-c2ccc3c(c2)cc2n3C(c3ccc(C(F)F)s3)Oc3cc(-c4cnc([C@@H]5CCCN5C(=O)[C@@H](NC(=O)OC)C(C)C)[nH]4)cc(F)c3-2)[nH]1)C1CCOC(C)(C)C1` (single isomer, unassigned) [Compound 414], the results for the IC50 in experiment [1] (setting [6]), in experiment [2] (setting [4]) and in experiment [3] (setting [5]) were 0.0022 nM, 0.134 nM and 0.457 nM, respectively.

`COC(=O)NC(C(=O)N1CCC[C@H]1c1ncc(-c2ccc3c(c2)cc2n3C(c3ccc(C4CC4)s3)Oc3cc(-c4cnc([C@@H]5CCCN5C(=O)[C@@H](NC(=O)OC)C(C)C)[nH]4)cc(F)c3-2)[nH]1)C1CC(C)(C)OC(C)(C)C1` (single isomer, unassigned) [Compound 420]: the IC50 came out at 0.0029 nM in experiment [1] (setting [6]), 3.13 nM in experiment [2] (setting [4]) and 6.03 nM in experiment [3] (setting [5]).

As to `COC(=O)NC(C(=O)N1[C@@H]2C[C@@H]2C[C@H]1c1ncc(-c2ccc3c(c2)c(F)c2n3C(c3ccc(C4CC4)s3)Oc3cc(-c4cnc([C@@H]5CCCN5C(=O)[C@@H](NC(=O)OC)C(C)C)[nH]4)cc(F)c3-2)[nH]1)C1CCOC(C)(C)C1` (single isomer, unassigned) [Compound 422], the IC50 in experiment [1] (setting [6]) was determined as 0.0023 nM; in experiment [2] (setting [4]), 0.107 nM; in experiment [3] (setting [5]) it was 0.138 nM.

Regarding `COC(=O)NC(C(=O)N1[C@@H]2C[C@@H]2C[C@H]1c1ncc(-c2ccc3c(c2)c(F)c2n3C(c3ccc(C4CC4)s3)Oc3cc(-c4cnc([C@@H]5CCCN5C(=O)[C@@H](NC(=O)OC)C(C)C)[nH]4)cc(F)c3-2)[nH]1)C1CCOC(C)(C)C1` (single isomer, unassigned) [Compound 423], the IC50 in experiment [1] (HCV replicon 1A) is 0.0021 nM; in experiment [2] (setting [4]) it was 0.0042 nM; in experiment [3] (setting [5]), 0.0096 nM.

For the compound `COC(=O)N[C@H](C(=O)N1CCC[C@H]1c1ncc(-c2ccc3c(c2)OC(c2cc(C)c(C)s2)n2c-3cc3cc(-c4cnc([C@@H]5C[C@H]6C[C@H]6N5C(=O)[C@@H](NC(=O)OC)C(C)C)[nH]4)ccc32)[nH]1)C(C)C` (single isomer, unassigned) [Compound 501], the IC50 in experiment [1] (HCV replicon 1A) turned out to be 0.024 nM; in experiment [2] (setting [4]) it was 4.35 nM; in experiment [3] (setting [5]), 8.37 nM.

Regarding `COC(=O)N[C@H](C(=O)N1CCC[C@H]1c1ncc(-c2ccc3c(c2)OC(c2cc(C)c(C)s2)n2c-3cc3cc(-c4cnc([C@@H]5C[C@H]6C[C@H]6N5C(=O)[C@@H](NC(=O)OC)C(C)C)[nH]4)ccc32)[nH]1)C(C)C` (single isomer, unassigned) [Compound 502], the IC50 in experiment [1] (HCV replicon 1A) was found to be 0.0121 nM; in experiment [2] (setting [4]), 0.575 nM; in experiment [3] (setting [5]), 0.0575 nM.

As for `COC(=O)N[C@H](C(=O)N1CCC[C@H]1c1ncc(-c2ccc3c(c2)OC(c2cc(C)c(C)s2)n2c-3cc3cc(-c4cnc([C@@H]5C[C@H]6C[C@H]6N5C(=O)[C@@H](NC(=O)OC)C(C)C)[nH]4)ccc32)[nH]1)C(C)C` (single isomer, unassigned) [Compound 503], the values for the IC50 in experiment [1] (HCV replicon 1A), in experiment [2] (setting [4]) and in experiment [3] (setting [5]) were 0.0676 nM, 1.76 nM and 7.51 nM, respectively.

`COC(=O)N[C@H](C(=O)N1CCC[C@H]1c1ncc(-c2cc(F)c3c(c2)OC(c2cc(C)c(C)s2)n2c-3cc3cc(-c4cnc([C@@H]5C[C@H]6C[C@H]6N5C(=O)[C@@H](NC(=O)OC)C(C)C)[nH]4)ccc32)[nH]1)C(C)C` (single isomer, unassigned) [Compound 508]: the IC50 in experiment [1] (setting [6]) was found to be 0.0409 nM; in experiment [2] (setting [4]) it was 0.608 nM; in experiment [3] (setting [5]) it was 7.09 nM.

For the compound `COCc1ccc(C2Oc3cc(-c4cnc([C@@H]5CCCN5C(=O)[C@@H](NC(=O)OC)C(C)C)[nH]4)cc(F)c3-c3cc4cc(-c5c[nH]c([C@@H]6CCCN6C(=O)[C@@H](NC(=O)OC)C(C)C)n5)ccc4n32)s1` (single isomer, unassigned) [Compound 511], the half-inhibitory concentration (IC50) was determined as 0.00238 nM in experiment [1] (setting [6]), 0.401 nM in experiment [2] (setting [4]) and 1.83 nM in experiment [3] (setting [5]).

`COC(=O)N[C@H](C(=O)N1CCC[C@H]1c1ncc(-c2cc(F)c3c(c2)OC(c2cc(C)c(C)s2)n2c-3cc3cc(-c4cnc([C@@H]5C[C@@H](F)CN5C(=O)[C@@H](NC(=O)OC)C(C)C)[nH]4)ccc32)[nH]1)C(C)C` (single isomer, unassigned) [Compound 514]: the IC50 in experiment [1] (HCV replicon 1A) was 0.0474 nM; in experiment [2] (setting [4]), 0.272 nM; in experiment [3] (setting [5]) it was 48.5 nM.

In the case of `COC(=O)N[C@H](C(=O)N1CCC[C@H]1c1ncc(-c2cc(F)c3c(c2)OC(c2cc(C)c(C)s2)n2c-3cc3cc(-c4cnc([C@@H]5C[C@@H](F)CN5C(=O)[C@@H](NC(=O)OC)C(C)C)[nH]4)ccc32)[nH]1)C(C)C` (single isomer, unassigned) [Compound 515], the results for the IC50 in experiment [1] (HCV replicon 1A), in experiment [2] (setting [4]) and in experiment [3] (setting [5]) were 0.0103 nM, 6.54 nM and 18.7 nM, respectively.

As for `COC(=O)N[C@H](C(=O)N1CCC[C@H]1c1ncc(-c2cc(F)c3c(c2)OC(c2cc(C)c(C)s2)n2c-3cc3cc(-c4cnc([C@@H]5C[C@@H](F)CN5C(=O)[C@@H](NC(=O)OC)C(C)C)[nH]4)ccc32)[nH]1)C(C)C` (single isomer, unassigned) [Compound 516], the IC50 in experiment [1] (HCV replicon 1A) amounted to 0.00191 nM; in experiment [2] (setting [4]) it was 0.0114 nM; in experiment [3] (setting [5]), 5.2 nM.

In the case of `COC(=O)N[C@H](C(=O)N1CCC[C@H]1c1ncc(-c2cc(F)c3c(c2)OC(c2ccc(CC(C)C)s2)n2c-3cc3cc(-c4cnc([C@@H]5CCCN5C(=O)[C@@H](NC(=O)OC)C(C)C)[nH]4)ccc32)[nH]1)C(C)C` (single isomer, unassigned) [Compound 521], the figures for the IC50 in experiment [1] (HCV replicon 1A), in experiment [2] (setting [4]) and in experiment [3] (setting [5]) were 0.00652 nM, 0.695 nM and 3.49 nM, respectively.

In the case of `COC(=O)N[C@H](C(=O)N1CCC[C@H]1c1ncc(-c2cc(F)c3c(c2)OC(c2ccc(CC(C)C)s2)n2c-3cc3cc(-c4cnc([C@@H]5CCCN5C(=O)[C@@H](NC(=O)OC)C(C)C)[nH]4)ccc32)[nH]1)C(C)C` (single isomer, unassigned) [Compound 522], the values for the IC50 in experiment [1] (HCV replicon 1A), in experiment [2] (setting [4]) and in experiment [3] (setting [5]) were 0.0239 nM, 0.0776 nM and 0.417 nM, respectively.

As to `COC(=O)N[C@H](C(=O)N1CCC[C@H]1c1ncc(-c2cc(F)c3c(c2)OC(c2scc4c2OCCO4)n2c-3cc3cc(-c4cnc([C@@H]5CCCN5C(=O)[C@@H](NC(=O)OC)C(C)C)[nH]4)ccc32)[nH]1)C(C)C` (single isomer, unassigned) [Compound 523], the IC50 in experiment [1] (HCV replicon 1A) was found to be 0.0032 nM; in experiment [2] (setting [7]), 11.7 nM; in experiment [3] (setting [5]) it was 12.4 nM.

Take `COC(=O)N[C@H](C(=O)N1CCC[C@H]1c1ncc(-c2cc(F)c3c(c2)OC(c2scc4c2OCCO4)n2c-3cc3cc(-c4cnc([C@@H]5CCCN5C(=O)[C@@H](NC(=O)OC)C(C)C)[nH]4)ccc32)[nH]1)C(C)C` (single isomer, unassigned) [Compound 524]: the IC50 in experiment [1] (HCV replicon 1A) came to 0.00766 nM; in experiment [2] (setting [4]) it was 14.5 nM; in experiment [3] (setting [5]) it was 4.64 nM.

Regarding `COC(=O)N[C@H](C(=O)N1CCC[C@H]1c1ncc(-c2cc(F)c3c(c2)OC(c2scc4c2OCCO4)n2c-3cc3cc(-c4cnc([C@@H]5C[C@H](F)CN5C(=O)[C@@H](NC(=O)OC)C(C)C)[nH]4)ccc32)[nH]1)C(C)C` (single isomer, unassigned) [Compound 526], the IC50 in experiment [1] (setting [6]) is 0.00776 nM; in experiment [2] (setting [7]), 4.79 nM; in experiment [3] (Hepatitis C virus, read-out: 2B IC50, HCV replicon 2B), 33.3 nM.

With `COC(=O)N[C@H](C(=O)N1CCC[C@H]1c1ncc(-c2cc(F)c3c(c2)OC(c2scc4c2OCCO4)n2c-3cc3cc(-c4cnc([C@@H]5C[C@H](F)CN5C(=O)[C@@H](NC(=O)OC)C(C)C)[nH]4)ccc32)[nH]1)C(C)C` (single isomer, unassigned) [Compound 527], the figures for the IC50 in experiment [1] (HCV replicon 1A), in experiment [2] (setting [4]) and in experiment [3] (setting [5]) were 0.0155 nM, 3.06 nM and 33.3 nM, respectively.

With `COC(=O)N[C@H](C(=O)N1CCC[C@H]1c1ncc(-c2cc(F)c3c(c2)OC(c2ccc(C4CCCCC4)s2)n2c-3cc3cc(-c4cnc([C@@H]5CCCN5C(=O)[C@@H](NC(=O)OC)C(C)C)[nH]4)ccc32)[nH]1)C(C)C` (single isomer, unassigned) [Compound 530], the IC50 in experiment [1] (HCV replicon 1A) was found to be 0.0131 nM; in experiment [2] (setting [7]), 0.0499 nM; in experiment [3] (setting [5]), 0.488 nM.

The record behind these values is patent US20160257697A1, “THIOPHENE-SUBSTITUTED TETRACYCLIC COMPOUNDS AND METHODS OFUSE THEREOF FOR THE TREATMENT OF VIRAL DISEASES” (priority 2013, published 2016).
